# The supplement of paper PMC10331698
# ± gives the standard deviation of the averaged measurements.
# Experiments:
# Assay in all cases: level (log10 ratio to DMSO vehicle control); higher = higher biomarker level / cell amount than vehicle control
# Conditions in all cases: in DMSO
# [1] = compound: O=C(O)C(F)(F)C(F)(F)C(F)(F)C(F)(F)C(F)(F)C(F)(F)C(F)(F)C(F)F [9-H-Perfluorononanoic acid]
# Experimental: (§1)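 BioMAP Diversity Plus panel of 12 human primary cell co-culture systems (3C, 4H, LPS, SAg, BT, BF4T, BE3C, CASM3C, HDF3CGF, KF3CT, MyoF, Mphg). Compounds were added 1 h before stimulation and left for 24 h (MyoF 48 h; BT 72 h for soluble read-outs or 6 d for IgG). Biomarkers were read by ELISA, cytotoxicity by SRB, PBMC viability and proliferation by Alamar Blue. Each well value was divided by the mean of 8 DMSO control wells on the same plate and log10 transformed; duplicate blinded samples were tested at 4 concentrations.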
# Perfluoroheptanoic acid = compound: O=C(O)C(F)(F)C(F)(F)C(F)(F)C(F)(F)C(F)(F)C(F)(F)F [Perfluoroheptanoic acid]
# Experimental: as §1
# [2] = compound: FC(F)C(F)(F)COCC1CO1 [((2,2,3,3-Tetrafluoropropoxy)methyl)oxirane]
# Experimental: as §1
# [3] = compound: O=C(O)C(F)(F)C(F)(F)OC(F)(F)F [Perfluoro-3-methoxypropanoic acid]
# Experimental: as §1
# [4] = compound: O=C(O)C(F)(F)OC(F)(F)C(F)(F)OC(F)(F)F [Perfluoro-3,6-dioxaheptanoic acid]
# Experimental: as §1
# [5] = compound: C=C(C)C(=O)OCCC(F)(F)C(F)(F)C(F)(F)C(F)(F)C(F)(C(F)(F)F)C(F)(F)F [(Perfluoro-5-methylhexyl)ethyl 2-methylprop-2-enoate]
# Experimental: as §1
Test System,level (log10) ([1]; 6700 nM),level (log10) ([1]; 20000 nM),level (log10) ([1]; 60000 nM),level (log10) (Perfluoroheptanoic acid; 6700 nM),level (log10) (Perfluoroheptanoic acid; 20000 nM),level (log10) (Perfluoroheptanoic acid; 60000 nM),level (log10) ([2]; 6700 nM),level (log10) ([2]; 20000 nM),level (log10) ([2]; 60000 nM),level (log10) ([3]; 6700 nM),level (log10) ([3]; 20000 nM),level (log10) ([3]; 60000 nM),level (log10) ([4]; 6700 nM),level (log10) ([4]; 20000 nM),level (log10) ([4]; 60000 nM),level (log10) ([5]; 6700 nM),level (log10) ([5]; 20000 nM)
CASM3C:CD142/Tissue Factor,-0.0025 ± 0.0078,-0.012 ± 0.028,0.006 ± 0.017,-0.0065 ± 0.012,0.015 ± 0.016,0.015 ± 0.071,0.0075 ± 0.013,-0.0005 ± 0.037,0.0385 ± 0.083,-0.022 ± 0.027,-0.0145 ± 0.04,-0.0025 ± 0.037,-0.049 ± 0.089,-0.0195 ± 0.097,0.014 ± 0.088,-0.037 ± 0.024,-0.0265 ± 0.056
CASM3C:CXCL8/IL-8,-0.002 ± 0.0057,-0.0045 ± 0.00071,0.0035 ± 0.0035,-0.0085 ± 0.0064,-0.002 ± 0.0042,0.046 ± 0.018,-0.003 ± 0.0085,-0.0195 ± 0.028,0.0215 ± 0.032,0.0045 ± 0.03,0.006 ± 0.03,0.033 ± 0.0028,0.011 ± 0.037,0.018 ± 0.052,0.0295 ± 0.039,0.005 ± 0.037,0.019 ± 0.028
CASM3C:CXCL9/MIG,-0.024 ± 0.017,-0.0155 ± 0.0092,0.0205 ± 0.00071,0.006 ± 0.023,0.015 ± 0.016,0.054 ± 0.051,0.002 ± 0.0085,-0.009 ± 0.02,0.014 ± 0.062,-0.0175 ± 0.0078,0.0065 ± 0.005,0.027 ± 0.024,0.028 ± 0.058,0.0245 ± 0.083,0.0415 ± 0.087,0.0335 ± 0.029,0.0445 ± 0.046
CASM3C:HLA-DR,-0.01 ± 0.0071,-0.0145 ± 0.0092,0.0025 ± 0.012,-0.009 ± 0.0085,-0.0315 ± 0.005,-0.004 ± 0.052,0.001 ± 0.0085,-0.001 ± 0.0099,0.0225 ± 0.043,-0.035 ± 0.033,-0.0245 ± 0.0092,0.004 ± 0.041,-0.0355 ± 0.069,-0.0385 ± 0.074,-0.047 ± 0.057,-0.0175 ± 0.019,-0.01 ± 0.0085
CASM3C:IL-6,-0.012 ± 0.0071,-0.036 ± 0.0042,-0.0045 ± 0.05,-0.0135 ± 0.0078,-0.0205 ± 0.021,0.008 ± 0.085,-0.029 ± 0.0071,-0.017 ± 0.0028,0.0175 ± 0.043,-0.001 ± 0.038,0 ± 0.044,0.0245 ± 0.0078,-0.01 ± 0.044,-0.0255 ± 0.0035,-0.017 ± 0.02,-0.035 ± 0.0042,0.0345 ± 0.028
CASM3C:LDLR,-0.003 ± 0.018,-0.005 ± 0.0042,0.009 ± 0.024,0.0175 ± 0.0092,0.012 ± 0.016,0.0125 ± 0.039,-0.0165 ± 0.021,-0.02 ± 0.0042,0.007 ± 0.024,0.0105 ± 0.016,0.01 ± 0.028,0.013 ± 0.013,-0.0145 ± 0.033,-0.013 ± 0.037,-0.0015 ± 0.005,-0.032 ± 0.03,0.018 ± 0.025
CASM3C:M-CSF,-0.007 ± 0.0014,-0.012 ± 0.0028,0.0205 ± 0.028,-0.004 ± 0.028,-0.005 ± 0.028,0.0035 ± 0.049,-0.0115 ± 0.021,-0.029 ± 0.0014,-0.0025 ± 0.084,-0.001 ± 0.011,-0.001 ± 0.03,0.031 ± 0.0071,-0.09 ± 0.035,-0.02 ± 0.023,0.034 ± 0.0014,-0.009 ± 0.0085,0.0195 ± 0.036
CASM3C:PAI-I,0.0135 ± 0.021,-0.004 ± 0.0042,0.0085 ± 0.022,-0.0005 ± 0.018,0.0035 ± 0.011,0.0105 ± 0.015,-0.0035 ± 0.0021,-0.001 ± 0.011,0.0065 ± 0.011,0.0015 ± 0.022,0.004 ± 0.013,0.0095 ± 0.0078,-0.004 ± 0.0099,-0.013 ± 0.024,-0.0105 ± 0.018,-0.004 ± 0.0014,0.002 ± 0.0014
CASM3C:Proliferation,0.012 ± 0.011,-0.016 ± 0.013,0.028 ± 0.088,-0.023 ± 0.0085,-0.008 ± 0.035,0.0045 ± 0.053,-0.0215 ± 0.011,-0.001 ± 0.014,0.0145 ± 0.032,-0.024 ± 0.023,-0.0095 ± 0.029,-0.0075 ± 0.025,0.02 ± 0.016,-0.034 ± 0.065,-0.077 ± 0.017,-0.036 ± 0.0014,-0.054 ± 0.071
CASM3C:SRB,0.0045 ± 0.005,0.0035 ± 0.0035,-0.001 ± 0.0057,-0.008 ± 0.0099,-0.011 ± 0.0014,-0.0065 ± 0.012,-0.0005 ± 0.015,-0.003 ± 0.0042,0.0015 ± 0.00071,0.0025 ± 0.005,-0.0045 ± 0.005,0.0075 ± 0.015,-0.0065 ± 0.00071,-0.002 ± 0.0028,-0.0005 ± 0.0035,-0.0025 ± 0.005,-0.0095 ± 0.0035
CASM3C:Serum Amyloid A,-0.0295 ± 0.035,-0.02,0.0435 ± 0.053,-0.006 ± 0.021,-0.013 ± 0.04,0.022 ± 0.082,-0.004 ± 0.011,0.0215 ± 0.0035,-0.0235 ± 0.0092,-0.0155 ± 0.0064,-0.017 ± 0.0099,0.008 ± 0.069,-0.038 ± 0.055,-0.014 ± 0.0085,-0.002 ± 0.086,-0.0325 ± 0.021,0.025 ± 0.0085
HDF3CGF:CCL2/MCP-1,-0.023 ± 0.028,-0.0185 ± 0.044,-0.0415 ± 0.052,-0.0085 ± 0.0064,0.0135 ± 0.00071,0.0115 ± 0.016,-0.0005 ± 0.0078,-0.001 ± 0.013,0.0005 ± 0.0078,-0.002 ± 0.0071,-0.0055 ± 0.00071,0.0085 ± 0.022,0.0155 ± 0.029,0.027 ± 0.023,0.0055 ± 0.049,-0.0335 ± 0.0092,-0.024 ± 0.023
HDF3CGF:CD54/ICAM-1,-0.035 ± 0.042,-0.052 ± 0.021,-0.045 ± 0.02,0.004 ± 0.02,-0.0145 ± 0.005,-0.0255 ± 0.018,0.001 ± 0.013,0.006 ± 0.0014,-0.007 ± 0.018,-0.017 ± 0.0028,-0.0025 ± 0.005,-0.0055 ± 0.00071,0.002 ± 0.0014,-0.003 ± 0.0028,-0.008 ± 0.014,0.0005 ± 0.016,-0.0045 ± 0.026
HDF3CGF:CD106/VCAM-1,-0.041 ± 0.018,-0.064 ± 0.013,-0.066 ± 0.013,-0.034 ± 0.027,-0.0135 ± 0.029,-0.021 ± 0.038,-0.001 ± 0.016,-0.0075 ± 0.023,-0.0295 ± 0.037,-0.008 ± 0.02,0.0165 ± 0.052,-0.0005 ± 0.036,-0.033 ± 0.024,0.023 ± 0.082,-0.039 ± 0.061,0.02 ± 0.023,-0.0275 ± 0.011
HDF3CGF:CXCL8/IL-8,-0.0055 ± 0.0021,-0.0055 ± 0.0064,0.0015 ± 0.0035,-0.0055 ± 0.0078,-0.0055 ± 0.0064,0.0095 ± 0.013,-0.0145 ± 0.016,-0.004 ± 0.0014,0.005 ± 0.0085,0.0045 ± 0.0064,0.0125 ± 0.0035,0.003 ± 0.017,-0.004 ± 0.013,0.0015 ± 0.005,0.0185 ± 0.016,-0.004 ± 0.0042,0.0025 ± 0.005
HDF3CGF:CXCL9/MIG,-0.0475 ± 0.022,-0.052 ± 0.0071,-0.0735 ± 0.016,-0.009 ± 0.0071,-0.002 ± 0.021,0.0165 ± 0.0064,-0.001 ± 0.013,0.0115 ± 0.023,-0.009 ± 0.028,-0.016 ± 0.016,0.0155 ± 0.019,0.019 ± 0.0014,-0.011 ± 0.014,0.0145 ± 0.0064,-0.02 ± 0.047,0.0135 ± 0.00071,0.0095 ± 0.011
HDF3CGF:CXCL10/IP-10,-0.0535 ± 0.016,-0.023 ± 0.02,-0.052 ± 0.017,-0.0295 ± 0.046,-0.015 ± 0.016,-0.0295 ± 0.0092,-0.0085 ± 0.032,-0.033 ± 0.0057,-0.0175 ± 0.023,0.001 ± 0.011,0.0055 ± 0.011,-0.0135 ± 0.021,0.007 ± 0.011,0.0095 ± 0.0078,-0.0075 ± 0.043,-0.0005 ± 0.0078,-0.003
